Reference: patent US8440617B2, “Hyperbaric treatment in wound healing” (The Trustees of the University of Pennsylvania, priority 2007, dated 2013)
Entries after “also recorded” stand apart in the source; their conditions may differ.

What was measured:
[1] = system: NO synthesis in bone marrow (NOS); assay: Real-time bone marrow NO measurement with NO microelectrode during HBO; type: in vivo, mouse; details: diabetic mice, insulin 6 U/kg twice/d i.p.
Description: For HBO treatment, mice were placed in an animal hyperbaric chamber (Reneau Corp.) and subjected to 100% oxygen at 2.4 atmospheres absolute (ATA) for 90 min (Davis Wound Healing Protocol). To measure continuous, real-time BM NO levels, NO microelectrodes was inserted into the femoral marrow cavity as previously described. An osteotomy was created on the patellar surface of the murine femur using a 25 G beveled needle, allowing the electrode to be lowered into the marrow space when the animal was placed in the hyperbaric chamber. In some mice, pretreatment with L-NAME (40 mg/kg i.p.) (Sigma-Aldrich) was given 2 h prior to exposure to HBO.
In early studies, it was hypothesized that HBO2 augments stem cell mobilization because it stimulates •NO synthesis in the bone marrow, as •NO is known to play a central role with stem cell release from bone marrow. […] Mice were placed in a hyperbaric chamber where, while breathing air, baseline measurements were obtained. The chamber was then flushed with 100% O2 and compressed to 2.4 ATA O2.
Physiologically, the NO-mediated EPC release into circulation occurs in response to tissue-level hypoxia, although this compensatory response is inadequate in the setting of diabetes and results in severe defects in neovascularization and wound healing. […] Therefore, it was sought to utilize HBO as a tool to augment EPC release into circulation and further study both EPC mobilization and wound-homing mechanisms in the presence of diabetes. The goal was to determine whether hyperoxia stimulates NO production in the BM of diabetic mice via a NOS-mediated pathway and whether this pathway is impaired in diabetes. To test this hypothesis, Nafion polymer—coated NO microsensors were inserted into the femur BM space of both STZ induced diabetic and nondiabetic mice to measure real-time NO levels within the BM prior to and is during HBO-induced hyperoxia. […] It was speculated, that this was likely due to a compensatory effect from other NOS isoforms, and therefore the level of both iNOS and nNOS was examined in diabetic mice. […] However, no observation was made of any changes in the phosphorylation of these NOS isoforms.

[2] = system: diabetic cutaneous wounds; assay: Peripheral wound healing (wound closure) in diabetic mice; type: in vivo, mouse
Description: Tie2-GFP, wild-type or chimeric FVB mice at 6-12 wk of age were treated with STZ (Sigma-Aldrich) to induce diabetes. Mice were rendered diabetic by i.p. administration of 60 mg/kg STZ in 50 mM sodium citrate, pH 4.5, daily for 5 d. Control mice were treated with daily injections of citrate buffer. Serum glucose was measured from the mouse tail vein using a glucometer. Once serum glucose reached 250 mg/dL, mice were followed with daily measurements for 1 wk prior to use in experiments. Serum glucose levels in STZ mice averaged 461 mg/dL with a range of 372-520 mg/dL, while control mice serum glucose mean level was 120 mg/dL with a range of 94-135 mg/dL. Wounds were induced on the ventral surface of the mouse thigh using a 4 mm punch biopsy. Full-thickness skin was removed, exposing the underlying muscle.
Initial wound surface area was recorded and wounds were then followed serially with daily digital photographs using an Olympus digital camera. Photographs contained an internal scale to allow for standard calibration of measurements. Wound area was quantified using ImageJ software. Wound area was expressed as the percentage of original wound size. Wounds were followed for 6 d and mice were sacrificed at the conclusion of the experiment.
EPCs play a key role in vasculogenesis and cutaneous tissue repair. It was hypothesized that increased numbers of EPCs in circulation, along with enhanced EPC homing to wounds, results in improved wound healing in diabetes. Diabetic wound closure rates were studied, in response to treatment with HBO and SDF-1α alone and in combination. Wounded diabetic mice underwent daily wound injections with SDF-1α, PBS, HBO, or SDF-1α+HBO treatments. […] This healing response was greater than the response to either treatment modality alone. In addition, histochemical analysis was conducted to examine blood vessel density (VEGFR2 staining), cellularity and stromagenesis (H&E staining), and extracellular constitution (trichrome staining) in wound tissues. […]

Substance: insulin: human insulin (NPH), 6 U/kg twice/d i.p.
- reversal of impaired BM NO production [1]: little effect
- reversal of impaired BM NO production ([1]; listed as Insulin): did not reverse
- wound healing rate, insulin combined with HBO+SDF-1α therapy ([2]; diabetic mice): did not further accelerate
- wound healing rates ([2]; diabetic mice treated with insulin 6 U/kg twice/d i.p.): failed to improve; also recorded: Little effect
